Results: ChEMBL document CHEMBL2150935, “Synthesis, biological evaluation and chemometric analysis of indazole derivatives. 1,2-Disubstituted 5-nitroindazolinones, new prototypes of antichagasic drug” (Eur J Med Chem, 2012)

Tests used:
Trypanosoma cruzi [1] = experiment: Growth inhibition of epimastigote form of Trypanosoma cruzi CL-B5 at 128 uM after 72 hrs by lacZ reporter gene assay; type: functional; conditions: CL-B5, 72 h, read-out: GI
[2] = Growth inhibition of mouse J774 cells at 256 uM after 24 hrs by resazurin reduction assay; type: cell-based; conditions: read-out: GI
Trypanosoma cruzi [3] = experiment: Growth inhibition of epimastigote form of Trypanosoma cruzi CL-B5 at 256 uM after 72 hrs by lacZ reporter gene assay; type: functional; conditions: CL-B5, 72 h, read-out: GI
[4] = Growth inhibition of mouse J774 cells at 128 uM after 24 hrs by resazurin reduction assay; type: cell-based; conditions: read-out: GI
Trypanosoma cruzi [5] = experiment: Growth inhibition of epimastigote form of Trypanosoma cruzi CL-B5 at 64 uM after 72 hrs by lacZ reporter gene assay; type: functional; conditions: CL-B5, 72 h, read-out: GI
[6] = Growth inhibition of mouse J774 cells at 64 uM after 24 hrs by resazurin reduction assay; type: cell-based; conditions: read-out: GI
Trypanosoma cruzi [7] = experiment: Growth inhibition of epimastigote form of Trypanosoma cruzi CL-B5 after 72 hrs by lacZ reporter gene assay; type: functional, organism-based; conditions: CL-B5, 72 h

Structure (SMILES) | inhibition of growth at 128 µM (Trypanosoma cruzi [1]) | inhibition at 24 h, 256 µM [2] | inhibition of growth at 256 µM (Trypanosoma cruzi [3]) | inhibition at 24 h, 128 µM [4] | inhibition of growth at 64 µM (Trypanosoma cruzi [5]) | inhibition at 24 h, 64 µM [6] | IC50 (Trypanosoma cruzi [7])
COc1c2cc([N+](=O)[O-])ccc2nn1Cc1ccccc1 | 38.1% | 6.83% | 21.2% | 0% | 48.3% | 0% | –
CCCOc1c2cc([N+](=O)[O-])ccc2nn1Cc1ccccc1 | 26.1% | 0% | 0% | 0% | 15.7% | 0% | –
CCCCCOc1c2cc([N+](=O)[O-])ccc2nn1Cc1ccccc1 | 78.8% | 0% | 79.3% | 0% | 53.4% | 0% | –
CCCOc1c2cc([N+](=O)[O-])ccc2nn1Cc1ccc2ccccc2c1 | 16.4% | 0% | 22.5% | 28.5% | 61.2% | 22.4% | –
COc1c2cc([N+](=O)[O-])ccc2nn1C | 79.2% | 21.6% | 78.7% | 6.57% | 67.8% | 0% | –
CCCOc1c2cc([N+](=O)[O-])ccc2nn1C | 16.9% | 62.4% | 91.2% | 35.3% | 27.4% | 0% | –
CC(C)Oc1c2cc([N+](=O)[O-])ccc2nn1C | 70.5% | 20% | 71.9% | 19.2% | 71.5% | 6.34% | –
Cn1nc2ccc([N+](=O)[O-])cc2c1OCc1ccccc1 | 56.1% | 0% | 65.5% | 1.39% | 36.7% | 21.5% | –
Cn1nc(OCCc2ccccc2)c2cc([N+](=O)[O-])ccc21 | 40.6% | 0% | 49.4% | 2.99% | 67% | 0% | –
O=C(Cn1ccnc1[N+](=O)[O-])NCc1ccccc1 [BENZNIDAZOLE] | 79.8% | 13% | 82% | 14.8% | 71% | 13% | 27.3 µM
CC1CS(=O)(=O)CCN1/N=C/c1ccc([N+](=O)[O-])o1 (stereo not drawn) [NIFURTIMOX] | 97.1% | 25% | 100% | 5% | 91.6% | 0% | 3.61 µM
